Measurements from PubChem BioAssay (NCI).
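Briefly, cells in 96-well plates were exposed to five compound concentrations for 48 h, and endpoints were estimated by linear interpolation. GI50 is the concentration that inhibits growth by half. TGI marks complete inhibition of growth.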

Experiments:
Assay in all cases: NCI anticancer screen, dose series, 48 h
[1] = test system: U251 CNS
[2] = test system: SK-OV-3 ovarian
[3] = test system: SF-268 CNS
[4] = test system: SF-295 CNS
[5] = test system: OVCAR-4 ovarian
[6] = test system: SK-MEL-2 melanoma
[7] = test system: SK-MEL-28 melanoma
[8] = test system: TK-10 renal
[9] = test system: NCI/ADR-RES ovarian
[10] = test system: T-47D breast
[11] = test system: CAKI-1 renal
[12] = test system: CCRF-CEM leukemia
[13] = test system: DU-145 prostate
[14] = test system: MCF7 breast
[15] = test system: LOX IMVI melanoma
[16] = test system: NCI-H226 lung
[17] = test system: HS 578T breast
[18] = test system: SNB-19 CNS
[19] = test system: RXF 393 renal
[20] = test system: NCI-H23 lung
[21] = test system: UACC-62 melanoma
[22] = test system: HL-60(TB) leukemia
[23] = test system: SW-620 colon
[24] = test system: MDA-MB-231 breast
[25] = test system: OVCAR-8 ovarian
[26] = test system: OVCAR-3 ovarian
[27] = test system: MDA-MB-435
[28] = test system: UACC-257 melanoma
[29] = test system: KM12 colon
[30] = test system: HT29 colon
[31] = test system: OVCAR-5 ovarian
[32] = test system: K-562 leukemia
[33] = test system: SF-539 CNS
[34] = test system: SNB-75 CNS
[35] = test system: SN12C renal
[36] = test system: EKVX NSCLC
[37] = test system: COLO 205 colon
[38] = test system: A549 NSCLC
[39] = test system: BT-549 breast
[40] = test system: MOLT-4 leukemia
[41] = test system: IGROV1 ovarian
[42] = test system: HCT-116 colon
[43] = test system: UO-31 renal
[44] = test system: M14 melanoma
[45] = test system: SK-MEL-5 melanoma
[46] = test system: PC-3 prostate
[47] = test system: HOP-92 NSCLC
[48] = test system: ACHN renal
[49] = test system: HCT-15 colon
[50] = test system: A498 renal
[51] = test system: MALME-3M melanoma
[52] = test system: RPMI-8226 leukemia
[53] = test system: NCI-H522 lung
[54] = test system: NCI-H460 lung
[55] = test system: HOP-62 NSCLC
[56] = test system: 786-0 renal
[57] = test system: HCC-2998 colon

SMILES: COc1cc2c(cc1OCCCCCN1CCN(c3cc(=O)oc4ccccc34)CC1)N=C[C@@H]1CCCN1C2=O
- GI50 [1]: 63.3 nM
- TGI [1]: 2320 nM
- GI50 [2]: 821 nM
- TGI [2]: > 41300 nM
- TGI [3]: 2470 nM
- GI50 [4]: 331 nM
- TGI [4]: 3160 nM
- GI50 [5]: 358 nM
- TGI [5]: 1710 nM
- GI50 [6]: 198 nM
- TGI [6]: 533 nM
- GI50 [7]: 437 nM
- TGI [7]: 1340 nM
- GI50 [8]: 175 nM
- TGI [8]: 13000 nM
- GI50 [9]: 1910 nM
- TGI [9]: > 22000 nM
- TGI [10]: 2280 nM
- GI50 [11]: 556 nM
- TGI [11]: 1860 nM
- GI50 [12]: 124 nM
- TGI [12]: 364 nM
- GI50 [13]: 221 nM
- TGI [13]: 3550 nM
- GI50 [14]: 93 nM
- TGI [14]: 4950 nM
- GI50 [15]: < 38.7 nM
- TGI [15]: 450 nM
- GI50 [16]: 184 nM
- TGI [16]: 485 nM
- GI50 [17]: 201 nM
- TGI [17]: 1840 nM
- GI50 [18]: 294 nM
- TGI [18]: 12500 nM
- GI50 [19]: 62.9 nM
- TGI [19]: 253 nM
- GI50 [20]: 262 nM
- TGI [20]: 1100 nM
- GI50 [21]: 186 nM
- TGI [21]: 383 nM
- GI50 [22]: < 45.3 nM
- TGI [22]: 1120 nM
- GI50 [23]: 242 nM
- TGI [23]: 6660 nM
- GI50 [24]: 27.7 nM
- TGI [24]: 730 nM
- GI50 [25]: 293 nM
- TGI [25]: 19900 nM
- GI50 [26]: 263 nM
- TGI [26]: 653 nM
- GI50 [27]: 183 nM
- TGI [27]: 425 nM
- GI50 [28]: 1590 nM
- TGI [28]: 5690 nM
- GI50 [29]: 268 nM
- TGI [29]: 1380 nM
- GI50 [30]: 84.1 nM
- TGI [30]: 610 nM
- GI50 [31]: 407 nM
- TGI [31]: 18600 nM
- GI50 [32]: < 41.1 nM
- TGI [32]: 3060 nM
- GI50 [33]: 232 nM
- TGI [33]: 907 nM
- TGI [34]: 343 nM
- GI50 [35]: 182 nM
- TGI [35]: 664 nM
- GI50 [36]: 848 nM
- TGI [36]: 4650 nM
- GI50 [37]: 42.2 nM
- TGI [37]: 280 nM
- GI50 [38]: 2560 nM
- TGI [38]: 11500 nM
- GI50 [39]: 158 nM
- TGI [39]: 778 nM
- GI50 [40]: 11.7 nM
- TGI [40]: 1410 nM
- GI50 [41]: 83 nM
- TGI [41]: 401 nM
- GI50 [42]: 88.9 nM
- TGI [42]: 336 nM
- GI50 [43]: 690 nM
- TGI [43]: 11400 nM
- GI50 [44]: 96.5 nM
- TGI [44]: 338 nM
- GI50 [45]: 206 nM
- TGI [45]: 481 nM
- GI50 [46]: 91.8 nM
- TGI [46]: 2340 nM
- TGI [47]: 178 nM
- GI50 [48]: 461 nM
- TGI [48]: 2550 nM
- GI50 [49]: 1020 nM
- TGI [49]: 7270 nM
- GI50 [50]: 220 nM
- TGI [50]: 488 nM
- GI50 [51]: 219 nM
- TGI [51]: 536 nM
- GI50 [52]: < 39 nM
- TGI [52]: 285 nM
- GI50 [53]: < 42.8 nM
- TGI [53]: 170 nM
- GI50 [54]: 131 nM
- TGI [54]: 9990 nM
- GI50 [55]: 151 nM
- TGI [55]: 438 nM
- GI50 [56]: 147 nM
- TGI [56]: 468 nM
- GI50 [57]: 176 nM
- TGI [57]: 398 nM
